Data from ChEMBL document CHEMBL3217532, “New analyses of MIC90 data to aid antibacterial drug discovery” (2011).

Assays:
Format in all cases: functional
Pseudomonas aeruginosa [1] = test: Antimicrobial activity against Pseudomonas aeruginosa 1761-00
Pseudomonas aeruginosa [2] = test: Antimicrobial activity against Pseudomonas aeruginosa 1512-08
Pseudomonas aeruginosa [3] = test: Antimicrobial activity against Pseudomonas aeruginosa 1764-00
Pseudomonas aeruginosa [4] = test: Antimicrobial activity against Pseudomonas aeruginosa 1562-05
Pseudomonas aeruginosa [5] = test: Antimicrobial activity against Pseudomonas aeruginosa 1570-05
Pseudomonas aeruginosa [6] = test: Antimicrobial activity against Pseudomonas aeruginosa 1760-00
Pseudomonas aeruginosa [7] = test: Antimicrobial activity against Pseudomonas aeruginosa PA-75
Pseudomonas aeruginosa [8] = test: Antimicrobial activity against Pseudomonas aeruginosa 1615-09
Pseudomonas aeruginosa [9] = test: Antimicrobial activity against Pseudomonas aeruginosa 1565-05
Pseudomonas aeruginosa [10] = test: Antimicrobial activity against Pseudomonas aeruginosa 1955-00
Pseudomonas aeruginosa [11] = test: Antimicrobial activity against Pseudomonas aeruginosa 1752-00
Pseudomonas aeruginosa [12] = test: Antimicrobial activity against Pseudomonas aeruginosa 1513-08
Pseudomonas aeruginosa [13] = test: Antimicrobial activity against Pseudomonas aeruginosa 1523-08
Pseudomonas aeruginosa [14] = test: Antimicrobial activity against Pseudomonas aeruginosa 1765-00
Pseudomonas aeruginosa [15] = test: Antimicrobial activity against Pseudomonas aeruginosa PA-4990
Pseudomonas aeruginosa [16] = test: Antimicrobial activity against Pseudomonas aeruginosa 1564-05
Pseudomonas aeruginosa [17] = test: Antimicrobial activity against Pseudomonas aeruginosa 1954-00
Pseudomonas aeruginosa [18] = test: Antimicrobial activity against Pseudomonas aeruginosa PA-4624
Pseudomonas aeruginosa [19] = test: Antimicrobial activity against Pseudomonas aeruginosa 1509-08
Pseudomonas aeruginosa [20] = test: Antimicrobial activity against Pseudomonas aeruginosa 1526-08
Pseudomonas aeruginosa [21] = test: Antimicrobial activity against Pseudomonas aeruginosa 1567-05
Pseudomonas aeruginosa [22] = test: Antimicrobial activity against Pseudomonas aeruginosa 1566-05
Pseudomonas aeruginosa [23] = test: Antimicrobial activity against Pseudomonas aeruginosa PA-4991
Pseudomonas aeruginosa [24] = test: Antimicrobial activity against Pseudomonas aeruginosa 1569-05
Pseudomonas aeruginosa [25] = test: Antimicrobial activity against Pseudomonas aeruginosa 1957-00
Pseudomonas aeruginosa [26] = test: Antimicrobial activity against Pseudomonas aeruginosa 1953-00
Pseudomonas aeruginosa [27] = test: Antimicrobial activity against Pseudomonas aeruginosa 1956-00
Pseudomonas aeruginosa [28] = test: Antimicrobial activity against Pseudomonas aeruginosa 1510-08
Pseudomonas aeruginosa [29] = test: Antimicrobial activity against Pseudomonas aeruginosa 1515-08
Pseudomonas aeruginosa [30] = test: Antimicrobial activity against Pseudomonas aeruginosa 1753-00
Pseudomonas aeruginosa [31] = test: Antimicrobial activity against Pseudomonas aeruginosa 1766-00
Pseudomonas aeruginosa [32] = test: Antimicrobial activity against Pseudomonas aeruginosa PA-4997
Pseudomonas aeruginosa [33] = test: Antimicrobial activity against Pseudomonas aeruginosa PA-4995
Pseudomonas aeruginosa [34] = test: Antimicrobial activity against Pseudomonas aeruginosa 1611-09
Pseudomonas aeruginosa [35] = test: Antimicrobial activity against Pseudomonas aeruginosa PA-4993
Pseudomonas aeruginosa [36] = test: Antimicrobial activity against Pseudomonas aeruginosa PA-4999
Pseudomonas aeruginosa [37] = test: Antimicrobial activity against Pseudomonas aeruginosa 1514-08
Pseudomonas aeruginosa [38] = test: Antimicrobial activity against Pseudomonas aeruginosa 1619-08
Pseudomonas aeruginosa [39] = test: Antimicrobial activity against Pseudomonas aeruginosa 1568-05
Pseudomonas aeruginosa [40] = test: Antimicrobial activity against Pseudomonas aeruginosa 1563-00
Pseudomonas aeruginosa [41] = test: Antimicrobial activity against Pseudomonas aeruginosa 1951-00
Pseudomonas aeruginosa [42] = test: Antimicrobial activity against Pseudomonas aeruginosa 1767-00
Pseudomonas aeruginosa [43] = test: Antimicrobial activity against Pseudomonas aeruginosa 1527-08
Pseudomonas aeruginosa [44] = test: Antimicrobial activity against Pseudomonas aeruginosa 1952-00
Pseudomonas aeruginosa [45] = test: Antimicrobial activity against Pseudomonas aeruginosa PA-1757
Pseudomonas aeruginosa [46] = test: Antimicrobial activity against Pseudomonas aeruginosa 1613-09
Pseudomonas aeruginosa [47] = test: Antimicrobial activity against Pseudomonas aeruginosa 1612-09
Pseudomonas aeruginosa [48] = test: Antimicrobial activity against Pseudomonas aeruginosa 1614-09
Pseudomonas aeruginosa [49] = test: Antimicrobial activity against Pseudomonas aeruginosa 1768-00
Pseudomonas aeruginosa [50] = test: Antimicrobial activity against Pseudomonas aeruginosa 1521-08
Pseudomonas aeruginosa [51] = test: Antimicrobial activity against Pseudomonas aeruginosa 1561-05

Measured: MIC90

CC1(C)[C@H](NC(=O)/C(=N\OCc2cc(=O)c(O)cn2O)c2csc(N)n2)C(=O)N1OS(=O)(=O)O
0.25 µg/mL: Pseudomonas aeruginosa [17] | Pseudomonas aeruginosa [25]
0.06 µg/mL: Pseudomonas aeruginosa [38]
4 µg/mL: Pseudomonas aeruginosa [1] | Pseudomonas aeruginosa [14] | Pseudomonas aeruginosa [30]
8 µg/mL: Pseudomonas aeruginosa [28] | Pseudomonas aeruginosa [45]
1 µg/mL: Pseudomonas aeruginosa [4] | Pseudomonas aeruginosa [6] | Pseudomonas aeruginosa [8] | Pseudomonas aeruginosa [11] | Pseudomonas aeruginosa [12] | Pseudomonas aeruginosa [13] | Pseudomonas aeruginosa [18] | Pseudomonas aeruginosa [22] | Pseudomonas aeruginosa [23] | Pseudomonas aeruginosa [24] | Pseudomonas aeruginosa [26] | Pseudomonas aeruginosa [29] | Pseudomonas aeruginosa [32] | Pseudomonas aeruginosa [36] | Pseudomonas aeruginosa [41] | Pseudomonas aeruginosa [43] | Pseudomonas aeruginosa [44]
16 µg/mL: Pseudomonas aeruginosa [47]
2 µg/mL: Pseudomonas aeruginosa [19] | Pseudomonas aeruginosa [37] | Pseudomonas aeruginosa [50] | Pseudomonas aeruginosa [51]
0.125 µg/mL: Pseudomonas aeruginosa [34]
0.5 µg/mL: all other assays above

C[C@H](O)Cn1c(-c2cc(=O)c(O)c[nH]2)nn(S(=O)(=O)NC(=O)N2C(=O)[C@@H](NC(=O)/C(=N\OC(C)(C)C(=O)O)c3csc(N)n3)[C@@H]2C)c1=O
0.5 µg/mL: Pseudomonas aeruginosa [1] | Pseudomonas aeruginosa [6] | Pseudomonas aeruginosa [12] | Pseudomonas aeruginosa [14] | Pseudomonas aeruginosa [18] | Pseudomonas aeruginosa [19] | Pseudomonas aeruginosa [28] | Pseudomonas aeruginosa [29] | Pseudomonas aeruginosa [30] | Pseudomonas aeruginosa [37] | Pseudomonas aeruginosa [47] | Pseudomonas aeruginosa [50] | Pseudomonas aeruginosa [51]
0.125 µg/mL: Pseudomonas aeruginosa [5] | Pseudomonas aeruginosa [10] | Pseudomonas aeruginosa [15] | Pseudomonas aeruginosa [16] | Pseudomonas aeruginosa [20] | Pseudomonas aeruginosa [21] | Pseudomonas aeruginosa [22] | Pseudomonas aeruginosa [40] | Pseudomonas aeruginosa [42]
0.06 µg/mL: Pseudomonas aeruginosa [3] | Pseudomonas aeruginosa [4] | Pseudomonas aeruginosa [25] | Pseudomonas aeruginosa [27] | Pseudomonas aeruginosa [33] | Pseudomonas aeruginosa [34] | Pseudomonas aeruginosa [49]
0.03 µg/mL: Pseudomonas aeruginosa [17] | Pseudomonas aeruginosa [38]
4 µg/mL: Pseudomonas aeruginosa [45]
1 µg/mL: Pseudomonas aeruginosa [31]
0.25 µg/mL: all other assays above

CC(C)(O/N=C(\C(=O)N[C@H]1CN(C(=O)NS(=O)(=O)n2nc(-c3cc(=O)c(O)c[nH]3)n(C[C@@H](O)CO)c2=O)C1=O)c1csc(N)n1)C(=O)O
1 µg/mL: Pseudomonas aeruginosa [1] | Pseudomonas aeruginosa [51]
16 µg/mL: Pseudomonas aeruginosa [31]
2 µg/mL: Pseudomonas aeruginosa [19]
0.06 µg/mL: Pseudomonas aeruginosa [17] | Pseudomonas aeruginosa [25] | Pseudomonas aeruginosa [27] | Pseudomonas aeruginosa [38] | Pseudomonas aeruginosa [49]
0.125 µg/mL: Pseudomonas aeruginosa [3] | Pseudomonas aeruginosa [4] | Pseudomonas aeruginosa [5] | Pseudomonas aeruginosa [9] | Pseudomonas aeruginosa [10] | Pseudomonas aeruginosa [15] | Pseudomonas aeruginosa [16] | Pseudomonas aeruginosa [21] | Pseudomonas aeruginosa [22] | Pseudomonas aeruginosa [33] | Pseudomonas aeruginosa [34] | Pseudomonas aeruginosa [35] | Pseudomonas aeruginosa [40] | Pseudomonas aeruginosa [42] | Pseudomonas aeruginosa [44]
0.5 µg/mL: Pseudomonas aeruginosa [11] | Pseudomonas aeruginosa [12] | Pseudomonas aeruginosa [14] | Pseudomonas aeruginosa [20] | Pseudomonas aeruginosa [26] | Pseudomonas aeruginosa [37] | Pseudomonas aeruginosa [46] | Pseudomonas aeruginosa [47] | Pseudomonas aeruginosa [50]
8 µg/mL: Pseudomonas aeruginosa [28] | Pseudomonas aeruginosa [45]
0.25 µg/mL: all other assays above
